Experimental data as given in patent publication US11479534B2, “Compound and use thereof in medicine” (Changsha Hooz Bioscience And Technology Co., Ltd, priority 2018, dated 2022).
pIC50: −log10 of the molar value.

How the values were obtained:
[1] = system: prostate cancer cells DU145; assay: MTS cell survival assay, DU145; format: cell-based; conditions: Homo sapiens, DU-145, DU145, 72 hours, read-out: half inhibitory dose (IC50)
Experimental: (§1) Culturing prostate cancer cells PC3 and DU145 cells, as well as non-cancerous normal cells (5000 cells/well) in a 96-well cell culture dish, and then using different doses of said compound M3 to treat prostate cancer cells PC3 and DU145 cells and normal […] cells RWPE1 and HPrEC. After 72 hours, detecting the survival rate of the cells by MTS method, and calculate […] of said compound M3 for different cells using software.

[2] = system: prostate cancer cells PC3; assay: MTS cell survival assay, PC3; format: cell-based
Experimental: as §1

UHRF1 = molecular target: T1, UHRF1 (Homo sapiens, UniProt Q96T88); assay: Western blot of UHRF1 protein level in treated DU145 cells; format: cell-based
T1 construct: reduces the protein level of the oncogene UHRF1 in prostate cancer cells in a dose-dependent manner; endogenous in cells; host or cells: DU145
T1 sequence (Q96T88 1-793): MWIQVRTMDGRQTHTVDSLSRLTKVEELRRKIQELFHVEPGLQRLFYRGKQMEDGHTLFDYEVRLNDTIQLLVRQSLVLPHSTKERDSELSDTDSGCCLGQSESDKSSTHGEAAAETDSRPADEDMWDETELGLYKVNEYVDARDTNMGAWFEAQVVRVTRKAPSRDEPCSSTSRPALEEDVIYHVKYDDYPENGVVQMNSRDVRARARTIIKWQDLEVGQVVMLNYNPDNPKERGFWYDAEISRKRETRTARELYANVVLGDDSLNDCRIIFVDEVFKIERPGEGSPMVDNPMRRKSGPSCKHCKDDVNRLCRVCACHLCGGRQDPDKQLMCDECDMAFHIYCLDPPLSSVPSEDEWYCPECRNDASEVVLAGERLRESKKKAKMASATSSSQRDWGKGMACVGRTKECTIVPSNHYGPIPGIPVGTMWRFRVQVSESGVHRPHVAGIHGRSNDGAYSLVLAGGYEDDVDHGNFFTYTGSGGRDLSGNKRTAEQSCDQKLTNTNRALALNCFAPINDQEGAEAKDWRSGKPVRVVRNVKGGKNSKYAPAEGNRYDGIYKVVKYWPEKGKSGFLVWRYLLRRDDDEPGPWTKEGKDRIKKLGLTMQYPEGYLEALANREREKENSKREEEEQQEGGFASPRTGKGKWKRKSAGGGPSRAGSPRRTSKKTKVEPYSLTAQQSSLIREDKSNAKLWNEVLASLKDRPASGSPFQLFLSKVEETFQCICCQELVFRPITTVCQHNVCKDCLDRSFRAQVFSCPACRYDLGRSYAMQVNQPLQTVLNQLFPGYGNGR
Experimental: (§2) Culturing a same amount of prostate cancer cell line DU145 in each well of a 6-well culture dish, allowing cell adhesion for 24 hours, and then using different doses of said compound M3 (50, 100 and 150 μM) to treat the prostate cancer cell DU145, and using said compound M1 as a control drug. After 24 hours, harvest the cells for Western blot to detect the protein levels of UHRF1, histone H3 and acetylated histone H3. […] The results of this experiment verifies that the compound M3 of the present invention specifically dual-targeting UHRF1 and HDAC molecules.

DNMT1 = assay: Western blot of DNMT1 protein expression in treated DU145 cells; format: cell-based; conditions: 24 hours, Western blot (FIG. 1)
RWPE1 cells = assay: MTS cell survival assay, RWPE1; format: cell-based; conditions: Homo sapiens, RWPE-1, RWPE1 normal cells, 72 hours
Experimental: as §1

[3] = system: prostate cancer DU145 cells xenograft tumor; assay: Subcutaneous xenograft model of prostate cancer DU145 cells in nude mouse; format: in vivo; conditions: 100 mg/kg/day intragastrically, 5 days a week, 4 weeks; compared with control compound M1
Experimental: Establishing a subcutaneous xenograft model of prostate cancer DU145 cells (1×106) in immunodeficient mouse by subcutaneous injection, allowing around 2-3 weeks for the xenograft to grow into a size of around 250 mm3, and then intragastrically administering the compound M3 of the present invention (100 mg/kg/day) once a day, 5 days a week with 2 days rest in between, for a total of 4 weeks of continuous treatment. Said […] and solvent DMSO are used as controls. Tumor size is measured before treatment and every 3 days after treatment begins. The size of the tumor is calculated according to the formula V=length×width 2/2.

[4] = Safety in nude mouse: weight and serum biochemical indicators; format: in vivo; conditions: 200 mg/kg/day intragastrically, 4 weeks
Experimental: Intragastrically administering the compound M3 of the present invention (200 mg/kg/day) in an immunodeficient nude mouse once a day, 5 days a week with 2 days rest in between, for a total of 4 weeks of continuous treatment; using solvent DMSO as a control. Weight of the nude mouse is measured before treatment and every 3 days after the treatment begins. When the experiment ends, extract blood from the nude mouse, separate blood serum, and detect the changes in biochemical indicators, including: aspartate aminotransferase (AST) and alanine aminotransferase (ALT) indicative of liver function, blood urea nitrogen (BUN) and creatinine (CREA) indicative of kidney function, and creatine kinase (CK) and l lactate dehydrogenase (LDH-L) indicative of heart function, to evaluate the effect of […] on heart, liver and kidney functions.

HDAC1 [5] = assay: Western blot of acetylated histone H3 and total histone H3 in treated DU145 cells (HDAC targeting); format: cell-based; conditions: DU145 cells, 50, 100 and 150 μM, 24 hours, Western blot (FIG. 1)
Experimental: as §2

HDAC1 [6] = molecular target: T2, HDAC1 (Homo sapiens, UniProt Q13547); assay: as above; format: cell-based; conditions: FIG. 6, M2 and M3 under the same dose
T2 construct: endogenous in cells; host or cells: DU145
T2 sequence (Q13547 whole entry): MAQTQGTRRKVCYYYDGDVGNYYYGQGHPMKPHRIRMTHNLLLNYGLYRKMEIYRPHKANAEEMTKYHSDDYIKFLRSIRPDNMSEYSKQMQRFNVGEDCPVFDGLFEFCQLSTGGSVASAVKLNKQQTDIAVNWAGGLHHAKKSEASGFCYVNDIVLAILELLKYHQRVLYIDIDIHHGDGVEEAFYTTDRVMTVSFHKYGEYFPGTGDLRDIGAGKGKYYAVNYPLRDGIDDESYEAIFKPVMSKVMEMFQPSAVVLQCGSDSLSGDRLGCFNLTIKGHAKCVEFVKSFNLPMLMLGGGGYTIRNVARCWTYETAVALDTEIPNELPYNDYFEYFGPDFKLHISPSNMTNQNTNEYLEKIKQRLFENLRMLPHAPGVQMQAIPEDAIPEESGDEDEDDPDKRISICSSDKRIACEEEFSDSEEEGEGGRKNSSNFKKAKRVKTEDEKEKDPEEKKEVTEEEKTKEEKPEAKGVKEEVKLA
Experimental: as §2

HPrEC cells = assay: MTS cell survival assay, HPrEC; format: cell-based; conditions: HPrEC normal cells, 72 hours
Experimental: as §1

O=C(CCCCCCC(=O)Nc1c[nH]c(=O)[nH]c1=O)NO [M3, N1-(carbonyl-5-aminouracil)-N8-octylhydroxyamide]
pIC50 [1]: > 4.30
pIC50 ([2]; PC3, 72 hours, MTS, read-out: half inhibitory dose (IC50)): > 4.30
selectivity for killing prostate cancer cells ([2]; PC3 and DU145 compared with RWPE1 and HPrEC): good selectivity for killing prostate cancer cells
protein level of UHRF1 (UHRF1; DU145 cells, 50, 100 and 150 μM, 24 hours, Western blot (FIG. 1)): specifically reduces the protein level of the oncogene UHRF1 in prostate cancer cells in a dose-dependent manner
protein level of UHRF1 target (UHRF1; FIG. 6, M2 and M3 under the same dose): significantly reduces the protein stability of UHRF1
protein expression of DNMT1 (DNMT1): significantly reduced
pIC50 (RWPE1 cells): < 3.52
tumor growth [3]: significantly reduces tumor growth compared with the control compound M1
weight of the nude mouse [4]: does not significantly reduce the weight
heart function (CK, LDH-L) ([4]; blood serum): no significant effect
kidney function (BUN, CREA) ([4]; blood serum): no significant effect
liver function (AST, ALT) ([4]; blood serum): no significant effect
acetylation level of histone H3 (HDAC1 [5]): causes an increase in acetylation level of histone H3
total histone H3 level (HDAC1 [5]): not affected
activity of HDAC1 (acetylated histone H3) (HDAC1 [6]): significantly inhibits the activity of HDAC1
pIC50 (HPrEC cells): < 3.52
